For one data set, the system named is cancer cells. As to the kind of experiment: Annexin V FACS, apoptotic cells in cancer cells compared with normal cells. Type of data set: cell-based. Particulars: 100 μM resveratrone glucoside, 24 hours. The method, then:
(§1) Cancer cell apoptotic effects of resveratrone and resveratrone glucoside (see U.S. Pat. No. 9,708,23762) were measured by FACS using Annexin-V binding to phosphatidiylserine (PS) which exists in the inner leaflet of the cytoplasmic membrane and is exposed to the outer leaflet of cell membrane during apoptosis.
In detail, apoptosis of normal cells or cancer cells, each treated with resveratrone or resveratrone glucoside, was evaluated by measuring signals of Alexa dye-conjugated annexin V using FACS. HeLa, MCF7, SW480, SW620, and HCC1954 which are cancer cells, and NIH3T3 and MCF10A which are normal cells, each treated with 50 μM resveratrone or 100 μM resveratrone glucoside, were cultured under conditions of 37° C. and 5% CO2 for 24 hours. Thereafter, media was removed, and the cells were washed with PBS buffer twice to remove remaining resveratrone or resveratrone glucoside. The cells were collected and centrifuged to remove supernatants. Annexin-bound buffer (10 mM HEPES, 140 mM NaCl, 2.5 mM CaCl2, pH 7.4) was added and resuspended. 5 μl of Alexa Fluor 647-conjugated annexin V was added to the resuspended cells at the cell volume of 100 μl, followed by incubation for 15 minutes. 1 ml of binding buffer was added to the incubated cells, followed by centrifugation. […]

A further data set has as its system MCF7. As to the kind of experiment: Annexin V FACS apoptosis measurement. Conditions: MCF7 cancer cell, 24 hours. Format: cell-based. The method, then:
as §1
(§2) In detail, apoptosis of normal cells or cancer cells, each treated with resveratrone or resveratrone glucoside, was evaluated by measuring signals of Alexa dye-conjugated annexin V using FACS. HeLa, MCF7, SW480, SW620, and HCC1954 which are cancer cells, and NIH3T3 and MCF10A which are normal cells, each treated with 50 μM resveratrone or 100 μM resveratrone glucoside, were cultured under conditions of 37° C. and 5% CO2 for 24 hours. Thereafter, media was removed, and the cells were washed with PBS buffer twice to remove remaining resveratrone or resveratrone glucoside. The cells were collected and centrifuged to remove supernatants. Annexin-bound buffer (10 mM HEPES, 140 mM NaCl, 2.5 mM CaCl2, pH 7.4) was added and resuspended. 5 μl of Alexa Fluor 647-conjugated annexin V was added to the resuspended cells at the cell volume of 100 μl, followed by incubation for 15 minutes. 1 ml of binding buffer was added to the incubated cells, followed by centrifugation. The supernatant was removed to remove remaining Alexa Fluor 647-conjugated annexin V. Thereafter, 500 μl of annexin-binding buffer was further added, and cells were passed through a cell strainer cap and stored in a round-bottom tube.

The next data set deals with MCF10A. In words: Annexin V FACS apoptosis measurement. Format: cell-based. Particulars: MCF10A normal cell, 24 hours. Here is the method:
as §1, §2

The test system of another data set is zebrafish embryos. As to the kind of experiment: Cytotoxicity and fluorescence in zebrafish embryos. Type of data set: in vivo. Conditions: 300 μM, observed at 2 hr, 20 hr, 48 hr, 72 hr. The method, then: In detail, zebrafish embryos (donated by Hyunsook Lee Lab, School of Biological Sciences, Seoul National University) were cultured, and treated with 300 μM of resveratrone or resveratrone glucoside. At 2 hr, 20 hr, 48 hr, and 72 hr after treatment, their changes were observed.

In data set [1] the test system is normal cell MCF10A. As to the kind of experiment: TUNEL assay. Format: cell-based. Particulars: 50 μM, 24 hours. Here is the method: (§3) In detail, a cancer cell MCF7 and a normal cell MCF10A were treated with 50 μM of resveratrone or resveratrone glucoside, respectively, and incubated for 24 hours. Thereafter, the cells were treated with 0.5% PBS-Triton X-100 and incubated for 10 minutes to increase cell permeability. The cells were treated with terminal deoxynucleotide transferase and tetra-methyl-rhodamine dUTP, followed by incubation at 37° C. for 1 hour. Next, the cells were washed with PBS three times, and treated with DAPI dye for nuclear counterstaining. Apoptotic signals were observed using fluorescence images.

Data set [2] deals with cancer cell MCF7. As to the kind of experiment: TUNEL assay. Type of data set: cell-based. Conditions: MCF7, 50 μM, 24 hours. The method, then: as §3
A further data set has as its system HCC1954. As to the kind of experiment: Annexin V FACS apoptosis measurement. Format: cell-based. Particulars: HCC1954 cancer cell, 50 μM resveratrone, 24 hours. Here is the method:
as §1, §2

The next data set concerns SW480. As to the kind of experiment: Annexin V FACS apoptosis measurement. Type of data set: cell-based. Conditions: SW480 cancer cell, 50 μM resveratrone, 24 hours. Here is the method: as §1, §2
Another data set has as its system SW620. As to the kind of experiment: Annexin V FACS apoptosis measurement. Format: cell-based. Particulars: SW620 cancer cell, 50 μM resveratrone, 24 hours. The method, then: as §1, §2
A further data set has as its system NIH3T3. As to the kind of experiment: Annexin V FACS apoptosis measurement. Type of data set: cell-based. Particulars: NIH3T3 normal cell, 50 μM resveratrone, 24 hours. Here is the method:
as §1, §2

The test system of a further data set is HeLa. In words: Annexin V FACS apoptosis measurement. Type of data set: cell-based. Particulars: HeLa cancer cell, 50 μM resveratrone, 24 hours. Here is the method:
as §1, §2

The test system of data set [3] is organoids having G12D mutation of Kras gene. In words: Apoptosis in pancreatic organoids. Particulars: treatment repeated after 72 hr, read 12 hr after final treatment. Format: cell-based, mouse. The method, then: In detail, as an alternative to a pancreatic tissue of a wild-type mouse and an individual with cancer, a pancreatic tissue having G12D mutation of Kras gene was obtained from a transgenic mouse, and the pancreatic tissue was dissociated with a dissociation solution, filtered. Then, a cell pellet containing ductal cells was collected by centrifugation, and incubated with a biological substrate material. The dissociation solution containing Hank's Balanced Salt Solution (HBSS) (3 ml), collagenase P (5 mg/ml), and DNase 1 (1 Units/μl) was used in a volume of 3 ml per pancreatic tissue (Vpan=about 1.08 mg/mm^3). When the collected cell pellet was incubated with the biological substrate material, three-dimensional pancreatic organoids were prepared by incubation under conditions of 37° C. and 5% CO2 with Matrigel which is a gelatinous protein mixture secreted from the murine Engelbreth-Holm-Swarm (EHS) sarcoma. Resveratrone and resveratrone glucoside were treated using DMSO as a solvent to reach a specific concentration with respect to the culture. After 72 hr, the medium was replaced by a fresh culture medium, and the above treatment was repeated. 12 hr after final treatment, changes of the organoids were recorded using an inverted fluorescence microscope (available from Zeiss) capable of photographing […] fluorescence. […]

Data set [4] deals with normal cell MCF10A. As to the kind of experiment: Western blotting for cleaved parp. Conditions: 50 μM, 48 hours. Format: cell-based. Here is the method: (§4) In detail, a cancer cell MCF7 and a normal cell MCF10A were treated with 50 μM of resveratrone, respectively, and incubated for 48 hours. The incubated cells were harvested and lysed with a NETN buffer (150 mM NaCl, 20 mM Tris/Cl pH 8.0, 0.5% v/v NP-40, 1 mM EDTA) containing a protease inhibitor, and then conjugated with a cleaved parp antibody, and sequentially, with a secondary antibody. Then, the presence or absence thereof was examined.

Data set [5] deals with cancer cell MCF7. As to the kind of experiment: Western blotting for cleaved parp. Type of data set: cell-based. Particulars: MCF7, 50 μM, 48 hours. The method, then: as §4
Background: Immunoblotting shows a protein as a band on a membrane.

Data set [6] has as its system normal cell MCF10A. As to the kind of experiment: Cell morphology by optical microscopy. Conditions: 50 μM, 48 hours. Format: cell-based. Here is the method:
(§5) In detail, a normal cell MCF10A and a cancer cell MCF7 were treated with 50 μM of resveratrone, respectively, and incubated for 48 hours. After incubation, media was removed, and the cells were washed with PBS buffer three times. Changes of cell morphology in PBS buffer were observed and compared by optical microscopy.

In data set [7] the test system is cancer cell MCF7. In words: Cell morphology by optical microscopy. Type of data set: cell-based. Conditions: MCF7, 50 μM, 48 hours. The method, then: as §5

`CC(=O)/C=C/c1ccc2cc(O[C@@H]3OC(CO)[C@@H](O)C(O)C3O)cc(O)c2c1` (stereo partly drawn) [resveratrone glucoside]: the “increase of number of apoptotic cells in cancer cells as compared with normal cells” value in the data set with cancer cells is “about 22 times”. For the same molecule, the “Apoptotic fraction (%)” value in the data set on MCF7 (100 μM resveratrone glucoside) is on record as 15.5%; in the data set with MCF10A (100 μM resveratrone glucoside) it was 0.7%. For the same molecule, the “cytotoxicity during development of zebrafish embryos” value in the data set on zebrafish embryos is on record as “induced no cytotoxicity”. The values for the TUNEL apoptotic signals result with normal cell MCF10A [1] and in the data set on cancer cell MCF7 [2] were “no effect on normal cells” and “observed only in the cancer cell MCF7”, respectively.

`CC(=O)/C=C/c1ccc2cc(O)cc(O)c2c1` [resveratrone]: the “Apoptotic fraction (%)” value stood at 26.0% with MCF7 (50 μM resveratrone); 39.3% with HCC1954; 15.5% in the data set with SW480; 17.4% in the data set on SW620; 2.0% with NIH3T3; 20.0% in the data set on HeLa. Besides, the “Apoptotic fraction (%)” value in the data set on MCF10A (50 μM resveratrone) was 1.0%. Also, the “cytotoxicity during development of zebrafish embryos” value in the data set on zebrafish embryos is given as “induced no cytotoxicity”. Further, the “apoptosis induction in organoids” value in data set [3] is listed as “showed apoptosis induction”. In addition, the Cleaved parp presence result with normal cell MCF10A [4] is given as “not observed in the resveratrone-treated normal cells”; in the data set with cancer cell MCF7 [5], “observed in the resveratrone-treated cancer cells”. Besides, the TUNEL apoptotic signals entry in the data set with normal cell MCF10A [1] is given as “no effect on normal cells”; in the data set on cancer cell MCF7 [2], “observed only in the cancer cell MCF7”. Also, the “Changes of cell morphology” value with normal cell MCF10A [6] is on record as “clearly observed irrespective of treatment with resveratrone”; in the data set on cancer cell MCF7 [7], “showed morphological features of apoptosis”.

Source of the values: patent publication US20210177992A1, “ANTICANCER FLUORESCENT SUBSTANCE DERIVED FROM NATURAL MATERIALS” (SEOUL NATIONAL UNIVERSITY R&DB FOUNDATION, priority 2017, published 2021).
